| SMILES | melting point [°C] |
| --- | --- |
| Nc1cc(=O)n(CC2CC2)c2nc(NC3CCC3)ncc12 [Compound I-55, 5-Amino-2-cyclobutylamino-8-cyclopropylmethyl-8H-pyrido[2,3-d]pyrimidin-7-one] | 236.1 to 239.1 |
| Nc1cc(=O)n(CCCO)c2nc(NC3CCCCC3)ncc12 [Compound I-8, 5-Amino-2-cyclohexylamino-8-(3-hydroxy-propyl)-8H-pyrido[2,3-d]pyrimidin-7-one] | 131 to 132.5 |
| CC(=O)N[C@H]1CC[C@H](Nc2ncc3c(N)cc(=O)n(C4CCCC4)c3n2)CC1 [Compound I-11, N-[4-(5-Amino-8-cyclopentyl-7-oxo-7,8-dihydro-pyrido[2,3-d]pyrimidin-2-ylamino)-cyclohexyl]-acetamide] | 172.6 to 176.6 |
| CCc1c(N)c2cnc(N[C@H]3CC[C@H](NC(C)=O)CC3)nc2n(C2CCCC2)c1=O [Compound I-23, N-[4-(5-Amino-8-cyclopentyl-6-ethyl-7-oxo-7,8-dihydro-pyrido[2,3-d]pyrimidin-2-ylamino)-cyclohexyl]-acetamide] | > 300 |
| Nc1cc(=O)n(C2CC2)c2nc(NC3CCOCC3)ncc12 [Compound I-54, 5-Amino-8-cyclopropyl-2-(tetrahydro-pyran-4-ylamino)-8H-pyrido[2,3-d]pyrimidin-7-one] | 264.4 to 266.8 |
| Nc1c(-c2ccccc2Cl)c(=O)n(C2CCC2)c2nc(NC3CCCCC3)ncc12 [Compound I-16, 5-Amino-6-(2-chloro-phenyl)-8-cyclobutyl-2-cyclohexylamino-8H-pyrido[2,3-d]pyrimidin-7-one] | 175 to 176 |
| Nc1cc(=O)n(CC2CC2)c2nc(NC3CCOCC3)ncc12 [Compound I-46, 5-Amino-8-cyclopropylmethyl-2-(tetrahydro-pyran-4-ylamino)-8H-pyrido[2,3-d]pyrimidin-7-one] | 135 to 137.4 |
| Cc1cccc(C)c1Nc1ncc2c(N)c(C)c(=O)n(C3CCC3)c2n1 [Compound I-70, 5-Amino-8-cyclobutyl-2-(2,6-dimethyl-phenylamino)-6-methyl-8H-pyrido[2,3-d]pyrimidin-7-one] | 213 to 214 |
| Nc1cc(=O)n(C2CCCC2)c2nc(NC3CCCCC3)ncc12 [Compound I-17, 5-Amino-2-cyclohexylamino-8-cyclopentyl-8H-pyrido[2,3-d]pyrimidin-7-one] | 125 to 130 |
| CS(=O)(=O)N[C@H]1CC[C@H](Nc2ncc3c(N)cc(=O)n(C4CCCCC4)c3n2)CC1 [Compound I-14, N-[4-(5-Amino-8-cyclohexyl-7-oxo-7,8-dihydro-pyrido[2,3-d]pyrimidin-2-ylamino)-cyclohexyl]-methanesulfonamide] | > 300 |
| CC(=O)N1CCC(Nc2ncc3c(N)c(C)c(=O)n(C4CCCC4)c3n2)CC1 [Compound I-59, 2-(1-Acetyl-piperidin-4-ylamino)-5-amino-8-cyclopentyl-6-methyl-8H-pyrido[2,3-d]pyrimidin-7-one] | 281 to 283 |
| CC(C)c1c(N)c2cnc(NC3CCCCC3)nc2n(C2CCC2)c1=O [Compound I-49, 5-Amino-8-cyclobutyl-2-cyclohexylamino-6-isopropyl-8H-pyrido[2,3-d]pyrimidin-7-one] | 277.5 to 278 |
| CC(=O)N1CCC(Nc2ncc3c(N)cc(=O)n([C@@H]4CC[C@@H](O)C4)c3n2)CC1 (racemic) [Compound I-37, 2-(1-Acetyl-piperidin-4-ylamino)-5-amino-8-((1R,3R)-3-hydroxy-cyclopentyl)-8H-pyrido[2,3-d]pyrimidin-7-one] | 192 to 194 |
| Cc1c(N)c2cnc(N[C@@H]3CCCC[C@H]3C)nc2n(C2CCC2)c1=O [Compound I-34, 5-Amino-8-cyclobutyl-6-methyl-2-((1R,2R)-2-methyl-cyclohexylamino)-8H-pyrido[2,3-d]pyrimidin-7-one] | 209 to 210 |
| Cc1c(N)c2cnc(N[C@H]3CC[C@H](C(=O)N4CCC(O)CC4)CC3)nc2n([C@@H]2CCOC2)c1=O [Compound I-47, 5-Amino-2-[4-(4-hydroxy-piperidine-1-carbonyl)-cyclohexylamino]-6-methyl-8-(R)-tetrahydro-furan-3-yl-8H-pyrido[2,3-d]pyrimidin-7-one] | 173 to 174 |
| Nc1cc(=O)n(C2CCCCC2)c2nc(NC3CCCCC3)ncc12 [Compound I-32, 5-Amino-8-cyclohexyl-2-cyclohexylamino-8H-pyrido[2,3-d]pyrimidin-7-one] | 243.1 to 244.9 |
| Nc1cc(=O)n(C2CC2)c2nc(NC3CCCCC3)ncc12 [Compound I-26, 5-Amino-2-cyclohexylamino-8-cyclopropyl-8H-pyrido[2,3-d]pyrimidin-7-one] | 117 to 118 |
| Nc1cc(=O)n(CC2CC2)c2nc(NC3CCCCC3)ncc12 [Compound I-12, 5-Amino-2-cyclohexylamino-8-cyclopropylmethyl-8H-pyrido[2,3-d]pyrimidin-7-one] | 133 to 135 |

| SMILES | melting point [°C] |
| --- | --- |
| CCOC(=O)N1CCC(Nc2ncc3c(N)c(C)c(=O)n(C4CCC4)c3n2)CC1 [Compound I-56, 4-(5-Amino-8-cyclobutyl-6-methyl-7-oxo-7,8-dihydro-pyrido[2,3-d]pyrimidin-2-ylamino)-piperidine-1-carboxylic acid ethyl ester] | 201.3 to 202.6 |
| CC(=O)N[C@H]1CC[C@H](Nc2ncc3c(N)cc(=O)n(CCCO)c3n2)CC1 [Compound I-42, N-{4-[5-Amino-8-(3-hydroxy-propyl)-7-oxo-7,8-dihydro-pyrido[2,3-d]pyrimidin-2-ylamino]-cyclohexyl}-acetamide] | > 300 |
| Cc1c(N)c2cnc(NC3CCN(S(C)(=O)=O)CC3)nc2n(C2CCC2)c1=O [Compound I-40, 5-Amino-8-cyclobutyl-2-(1-methanesulfonyl-piperidin-4-ylamino)-6-methyl-8H-pyrido[2,3-d]pyrimidin-7-one] | 265.3 to 267 |
| N#Cc1c(N)c2cnc(N[C@H]3CC[C@H](C(=O)N4CCC(O)CC4)CC3)nc2n(C2CCC2)c1=O [Compound I-38, 5-Amino-8-cyclobutyl-2-[4-(4-hydroxy-piperidine-1-carbonyl)-cyclohexylamino]-7-oxo-7,8-dihydro-pyrido[2,3-d]pyrimidine-6-carbonitrile] | > 300 |
| CCn1c(=O)cc(N)c2cnc(NC3CCOCC3)nc21 [Compound I-50, 5-Amino-8-ethyl-2-(tetrahydro-pyran-4-ylamino)-8H-pyrido[2,3-d]pyrimidin-7-one] | 235 to 238.2 |
| Nc1cc(=O)n(C2CCCC2)c2nc(NC3CCOCC3)ncc12 [Compound I-33, 5-Amino-8-cyclopentyl-2-(tetrahydro-pyran-4-ylamino)-8H-pyrido[2,3-d]pyrimidin-7-one] | 120 to 124 |
| Cc1ccccc1Nc1ncc2c(N)c(C)c(=O)n(C3CCC3)c2n1 [Compound I-62, 5-Amino-8-cyclobutyl-6-methyl-2-o-tolylamino-8H-pyrido[2,3-d]pyrimidin-7-one] | 186 to 187 |
| Nc1cc(=O)n(C2CCCCC2)c2nc(N[C@H]3CC[C@H](O)CC3)ncc12 [Compound I-6, 5-Amino-8-cyclohexyl-2-(4-hydroxy-cyclohexylamino)-8H-pyrido[2,3-d]pyrimidin-7-one] | 292 to 294 |
| CS(=O)(=O)N1CCC(Nc2ncc3c(N)cc(=O)n(C4CCCCC4)c3n2)CC1 [Compound I-29, 5-Amino-8-cyclohexyl-2-(1-methanesulfonyl-piperidin-4-ylamino)-8H-pyrido[2,3-d]pyrimidin-7-one] | 250 to 254 |
| Cc1c(N)c2cnc(N[C@H]3CC[C@H](C(=O)N4CCC(O)CC4)CC3)nc2n(C2CCC2)c1=O [Compound I-15, 5-Amino-8-cyclobutyl-2-[4-(4-hydroxy-piperidine-1-carbonyl)-cyclohexylamino]-6-methyl-8H-pyrido[2,3-d]pyrimidin-7-one] | 191.5 to 193 |
| Cc1c(N)c2cnc(N[C@@H]3CCCC[C@@H]3C)nc2n(C2CCC2)c1=O (racemic) [Compound I-58, 5-Amino-8-cyclobutyl-6-methyl-2-((1R,2S)-2-methyl-cyclohexylamino)-8H-pyrido[2,3-d]pyrimidin-7-one] | 160 to 161 |
| COC(=O)N[C@H]1CC[C@H](Nc2ncc3c(N)cc(=O)n(C4CCC4)c3n2)CC1 [Compound I-2, [4-(5-Amino-8-cyclobutyl-7-oxo-7,8-dihydro-pyrido[2,3-d]pyrimidin-2-ylamino)-cyclohexyl]-carbamic acid methyl ester] | 154.3 to 156 |
| COC(=O)N[C@H]1CC[C@H](Nc2ncc3c(N)cc(=O)n(C4CCCCC4)c3n2)CC1 [Compound I-19, [4-(5-Amino-8-cyclohexyl-7-oxo-7,8-dihydro-pyrido[2,3-d]pyrimidin-2-ylamino)-cyclohexyl]-carbamic acid methyl ester] | 193.9 to 198 |
| CC(=O)N[C@H]1CC[C@H](Nc2ncc3c(N)c(C)c(=O)n(C4CCCC4)c3n2)CC1 [Compound I-41, N-[4-(5-Amino-8-cyclopentyl-6-methyl-7-oxo-7,8-dihydro-pyrido[2,3-d]pyrimidin-2-ylamino)-cyclohexyl]-acetamide] | 296.2 to 298.2 |
| COC(=O)N[C@H]1CC[C@H](Nc2ncc3c(N)cc(=O)n(C4CC4)c3n2)CC1 [Compound I-39, [4-(5-Amino-8-cyclopropyl-7-oxo-7,8-dihydro-pyrido[2,3-d]pyrimidin-2-ylamino)-cyclohexyl]-carbamic acid methyl ester] | 257 to 259 |
| Nc1cc(=O)n(C2CCCCC2)c2nc(NC3CCOCC3)ncc12 [Compound I-51, 5-Amino-8-cyclohexyl-2-(tetrahydro-pyran-4-ylamino)-8H-pyrido[2,3-d]pyrimidin-7-one] | 160 to 164 |
| Cc1c(N)c2cnc(NC3CCCCC3)nc2n([C@@H]2CCOC2)c1=O [Compound I-44, 5-Amino-2-cyclohexylamino-6-methyl-8-(R)-tetrahydro-furan-3-yl-8H-pyrido[2,3-d]pyrimidin-7-one] | 225 to 226 |
| Cc1c(N)c2cnc(N[C@H]3CCCC[C@@H]3C)nc2n(C2CCC2)c1=O (racemic) [Compound I-60, 5-Amino-8-cyclobutyl-6-methyl-2-((1S,2S)-2-methyl-cyclohexylamino)-8H-pyrido[2,3-d]pyrimidin-7-one] | 209 to 210 |
